Measurements: article PMC4139342, “Pharmacokinetics-Pharmacodynamics Analysis of Bicyclic 4-Nitroimidazole Analogs in a Murine Model of Tuberculosis” (PLoS ONE, 2014)
≈ marks a conversion by molar mass, not a printed value. Like-named read-outs stand apart in the source and are kept apart here.

Columns and labels:
[1] = Cytotoxicity against THP1 macrophage cell lines; type: cell-based; settings: human
in vivo [2] = settings: female, CD-1, mouse, po
in vivo [3] = settings: female, CD-1, mouse, po; remark: listed apart in the source
in vivo [4] = settings: female, CD-1, mouse, iv; for clearance: i.v. CL
Mtb H37Rv = assay: In vivo mouse efficacy, established murine TB model; design: species or system Balb/c mice; settings: for Efficacy compared with PA-824, in words: significance at P<0.05; for Dose dependence of efficacy, in words: 25 versus 100 mg/kg oral daily for 4 weeks; for log reduction at 25 mg/kg / log reduction at 100 mg/kg: Mycobacterium tuberculosis, H37RV, po, 672 h, read-out: Mean log lung CFU reduction ± SEM compared to untreated controls
Experimental: In vivo mouse efficacy studies were determined after intranasal infection of Balb/c mice with 10^3 cfu Mtb H37Rv. Treatment was initiated 4 weeks after infection. Compounds were orally administered in CM-2 formulation for 4 weeks daily. Bacterial loads were determined at 2 and 4 weeks post treatment. Statistical analysis was done by a one-way analysis of variance, followed by a multiple comparison analysis of variance by a one-way Tukey test (GraphPad Prism, version 5.02, San Diago, California USA, www.graphpad.com). Differences were considered statistically significant at the 95% level of confidence.

[5] = In vivo plasma PK after intravenous dosing; settings: mice
physchem [6] = assay: physchem
[7] = In vivo plasma PK after oral dosing in CM-2 formulation; settings: for half-life: female, CD-1, mouse, plasma, po
[8] = test system: CaCo-2 colon carcinoma cell lines
[9] = test system: M. tuberculosis (Mtb) (H37Rv, ATCC 27294); assay: microbe, parasite or virus in culture; type: cell-based; settings: for MIC99: Mycobacterium tuberculosis
in vitro [10] = settings: human, Caco-2
in vitro [11] = settings: mouse, plasma
physchem [12] = settings: pH 6.8, aqueous buffer, thermodynamic from solid
[13] = In vivo lung PK after oral dosing; settings: female, CD-1, mouse
[14] = female, CD-1, mouse, in vivo, po
[15] = design: method as in PMID 16870750; settings: mice dosed for 2 months; cited from earlier work
[16] = female, CD-1, mouse, in vivo, po, 25 mg/kg
Mtb = settings: murine model, cited from earlier work
[17] = design: method as in PMID 19528280; settings: healthy subjects, oral daily doses for 7 days; cited from earlier work
[18] = not given; remark: listed apart in the source
[19] = 25 mg/kg oral daily for 4 weeks, 5 animals
[20] = 25 mg/kg oral daily for 4 weeks
[21] = 100 mg/kg oral daily for 4 weeks, 5 animals
[22] = 100 mg/kg oral daily for 4 weeks
[23] = 25 mg/kg, Lung to Plasma ratio AUC24
[24] = 25 mg/kg, Lung to Plasma ratio Cmax
[25] = 25 mg/kg oral daily for 4 weeks, mean value from three independent experiments (n = 15)
[26] = mouse plasma, single oral dose 25 mg/kg, CM-2

## O=C(CO[C@@H]1COc2nc([N+](=O)[O-])cn2C1)N1CCN(c2ccc(C(F)(F)F)cn2)CC1 [NI-644]
other
  PAMPA %FA: 83%
  PAMPA Log Pe: –4.9 cm/sec
[1]
  CC50: > 10 µg/mL
In vivo [2]; 50 mg/kg
  AUC: 89500 ng·h/mL
  Cmax: 16200 ng/mL
  Tmax: 1 h
  bioavailability: 100%
In vivo [3]; 50 mg/kg
  Tmax: 1 h
In vivo [3]; 50 mg/kg, Lung to Plasma ratio AUC24
  Kp: 0.4
In vivo [3]; 50 mg/kg, Lung to Plasma ratio Cmax
  Kp: 0.5
In vivo [4]; 10 mg/kg
  Vd: 0.7 L/kg
  clearance: 9.5 mL/min/kg
Mtb H37Rv; [19]
  Mean log lung CFU ± SEM: 6.18±0.03 log CFU
  log reduction at 25 mg/kg: 0.48 to 0.89
Mtb H37Rv; [20]
  Efficacy compared with PA-824, in words: significantly (P<0.05) less efficacious than PA-824
Mtb H37Rv; [21]
  Mean log lung CFU ± SEM: 6.09±0.07 log CFU
  log reduction at 100 mg/kg: 0.57 ± 0.07
Mtb H37Rv; [22]
  Efficacy compared with PA-824, in words: significantly (P<0.05) less efficacious than PA-824
Mtb H37Rv
  Dose dependence of efficacy, in words: no dose-dependent increase in bactericidal activity
[5]; female, CD-1, mouse, plasma, iv, 10 mg/kg, T1/2 (i.v), i.v. dosing at 10 mg/kg
  half-life: < 1 h
[5]; i.v. dosing at 10 mg/kg, 10 mg/kg
  T1/2 (i.v): 0.9 h
Physchem [6]
  logP: 2.6
[7]; 50 mg/kg
  half-life: 3.6 h
[8]
  Permeability in the Caco-2 assay, in words: moderate permeability
[9]
  MIC99: 0.09 µg/mL (≈ 0.197 µM)
In vitro [10]
  Papp A→B: 2.8 ×10⁻⁶ cm/s
  Papp B→A: 13.7 ×10⁻⁶ cm/s
  efflux ratio: 4.8
In vitro [11]
  fraction unbound: 0.1
Physchem [12]
  solubility: 14 µg/mL (≈ 30.7 µM)
[13]; 50 mg/kg
  half-life: 2.9 h
[14]; 50 mg/kg
  Lung AUC24: 38.1 µg·h/g
  Lung Cmax: 7.5 µg/g

## O=[N+]([O-])c1cn2c(n1)OC[C@@H](OCc1ccc(OC(F)(F)F)cc1)C2 [PA-824, (6S)-2-nitro-6-{[4-(trifluoromethoxy)benzyl]oxy}-6,7-dihydro-5H-imidazo[2,1-b][1, 3]oxazine, reference compound]
[15]
  Plasma accumulation: absence of plasma accumulation
[16]
  Plasma free fCmax: 0.6 µg/mL
[1]; THP1 macrophage cell line, THP1 macrophage cell lines, read-out: Cytotoxicity CC50
  CC50: > 10 µg/mL
In vivo [2]; 25 mg/kg
  AUC: 50900 ng·h/mL
In vivo [3]; 25 mg/kg
  Tmax: 0.3 h
In vivo [3]; [23]
  Kp: 2.7
In vivo [3]; [24]
  Kp: 3
Mtb; for 1-log10 kill
  fT>MIC in plasma required: 48%
Mtb; for 1.59 log10 kill
  fT>MIC in plasma required: 77%
Mtb; for bacteriostatic effect
  fT>MIC in plasma required: 22%
Mtb H37Rv; [25]
  Mean log lung CFU reduction ± SEM compared to untreated controls: 1.48 ± 0.09 log CFU
  log reduction at 25 mg/kg: 1.48 ± 0.09
Mtb H37Rv
  Dose dependence of efficacy, in words: dose dependent increase in efficacy
Mtb H37Rv; [19]
  log reduction at 25 mg/kg: 1.23 to 1.56
Mtb H37Rv; [21]
  log reduction at 100 mg/kg: 1.95 ± 0.13
Mtb H37Rv; 100 mg/kg oral daily for 4 weeks, mean value from three independent experiments (n = 15)
  log reduction at 100 mg/kg: 2.3 ± 0.08
[5]; i.v. dosing at 10 mg/kg
  T1/2 (i.v): 1.6 h
  i.v. CL: 12.1 mL/min/kg
  i.v. Vss: 1.6 L/kg
Physchem [6]
  logP: 2.75
[7]; mice, p.o. 25 mg/kg versus i.v. 5 mg/kg (PA-824: i.v. 10 mg/kg)
  F, oral bioavailability: 100%
[7]; [26]
  T1/2 (p.o.): 2.7
  p.o. Tmax: 2 h
[7]; mouse plasma, total concentration, single oral dose 25 mg/kg, CM-2
  p.o. Cmax: 6000 ng/mL
PAMPA permeability; effective permeability
  PAMPA Log Pe: –4.2 cm/sec
PAMPA permeability; fraction absorbed
  PAMPA %FA: 99%
[9]
  MIC99: 0.3 µg/mL (≈ 0.835 µM)
In vitro [10]
  Papp A→B: 27.6 ×10⁻⁶ cm/s
  Papp B→A: 20.4 ×10⁻⁶ cm/s
  efflux ratio: 0.8
In vitro [11]
  fraction unbound: 0.1
Physchem [12]
  solubility: 13 µg/mL (≈ 36.2 µM)
[13]; 25 mg/kg
  half-life: 4.8 h
[17]
  Tolerability: well tolerated
[14]; 25 mg/kg
  Lung AUC24: 139.9 µg·h/g
  Lung Cmax: 17.8 µg/g

## O=[N+]([O-])c1cn2c(n1)OC[C@@H](NCc1ccc(OC(F)(F)F)c(F)c1)C2 [NI-136]
other
  PAMPA %FA: 83%
  PAMPA Log Pe: –4.7 cm/sec
[16]
  Plasma free fCmax: 0.3 µg/mL
[1]
  CC50: > 10 µg/mL
In vivo [2]; 25 mg/kg
  AUC: 10700 ng·h/mL
  Cmax: 2000 ng/mL
  Tmax: 0.5 h
  bioavailability: 64%
In vivo [3]; 25 mg/kg
  Tmax: 0.5 h
In vivo [3]; [23]
  Kp: 3.7
In vivo [3]; [24]
  Kp: 3.6
[18]
  Solubility pH 6.8: 43.0 µg/mL
In vivo [4]; 5 mg/kg
  Vd: 1.8 L/kg
  clearance: 25.1 mL/min/kg
Mtb H37Rv; [19]
  Mean log lung CFU reduction ± SEM compared to untreated controls: 1.31 ± 0.06 log CFU
  Mean log lung CFU ± SEM: 4.93±0.06 log CFU
  log reduction at 25 mg/kg: 1.31 ± 0.06
Mtb H37Rv; [20]
  Efficacy compared with PA-824, in words: comparable efficacy to PA-824
Mtb H37Rv; [21]
  Mean log lung CFU ± SEM: 4.18±0.17 log CFU
  log reduction at 100 mg/kg: 2.06 ± 0.17
Mtb H37Rv; [22]
  Efficacy compared with PA-824, in words: comparable efficacy to PA-824
Mtb H37Rv
  Dose dependence of efficacy, in words: dose dependent increase in efficacy
[5]; i.v. dosing at 5 mg/kg
  T1/2 (i.v): 1.3 h
Physchem [6]
  logP: 2.6
[7]; 25 mg/kg
  half-life: 2 h
[9]
  In vitro potency relative to PA-824: 10 times
  MIC99: 0.03 µg/mL (≈ 0.0797 µM)
In vitro [10]
  Papp A→B: 15.4 ×10⁻⁶ cm/s
  Papp B→A: 12.6 ×10⁻⁶ cm/s
  efflux ratio: 0.8
In vitro [11]
  fraction unbound: 0.173
[13]; 25 mg/kg
  half-life: 2.5 h
[14]; 25 mg/kg
  Absolute lung concentrations, fold lower than PA-824: 2.5-7.5 fold
  Lung AUC24: 39.8 µg·h/g
  Lung Cmax: 7.2 µg/g
